Measurements: ChEMBL document CHEMBL3399932, “Synthesis of new N-benzylpiperidine derivatives as cholinesterase inhibitors with β-amyloid anti-aggregation properties and beneficial effects on memory in vivo” (Bioorg Med Chem, 2015)
Activity calls are given as the source filed them. The rule behind the calls is not given here.

Tests used:
[1] = biological target: Cholinesterase (Equus caballus) (UniProt P81908); experiment: Inhibition of horse serum BChE using butyrylthiocholine iodide as substrate preincubated at 10^-4 mol/L for 5 mins by Ellman method
Acetylcholinesterase = Acetylcholinesterase (Electrophorus electricus, UniProt O42275)
Cholinesterase = Cholinesterase (Equus caballus, UniProt P81908)
[2] = biological target: Acetylcholinesterase (Electrophorus electricus) (UniProt O42275); experiment: Inhibition of electric eel AChE using acetylthiocholine iodide as substrate preincubated at 10^-4 mol/L for 5 mins by Ellman method
Mus musculus [3] = experiment: (§1) Effect on scopolamine-induced cognitive dysfunction in albino Swiss CD-1 mouse assessed as reduction in step-through latency time at 5 to 30 mg/kg, ip administered 1 hr before the acquisition trial by passive avoidance test; format: functional, organism-based
[4] = biological target: Amyloid-beta precursor protein (Homo sapiens) (UniProt P05067); experiment: Inhibition of self-induced beta-amyloid (1 to 42) (unknown origin) aggregation by thioflavin-T assay
Mus musculus [5] = experiment: as §1, with “time during retention trial” for “time”, “trial measured 24 hrs after acquisition trial over 180 seconds” for “trial”; format: functional, organism-based
Mus musculus [6] = experiment: Sedative activity in albino Swiss CD-1 mouse assessed as decrease in spontaneous locomotor activity at 30 mg/kg, ip administered 1 hr before test measured at 18 to 30 mins of test; format: ADME, organism-based; design: dose 30 mg/kg, route intraperitoneal; settings: in vivo
Mus musculus [7] = experiment: Sedative activity in albino Swiss CD-1 mouse assessed as decrease in spontaneous locomotor activity at 30 mg/kg, ip administered 1 hr before test measured up to 6 mins of test; format: ADME, organism-based; design: dose 30 mg/kg, route intraperitoneal; settings: in vivo
Mus musculus [8] = experiment: Toxicity in albino Swiss CD-1 mouse assessed as decrease in impairment of motor coordination at 6 to 18 rpm at 30 to 100 mg/kg, ip administered 1 hr before test by rotarod test; format: organism-based; design: dose 30-100 mg/kg, route intraperitoneal; settings: in vivo
Mus musculus [9] = experiment: Toxicity in albino Swiss CD-1 mouse assessed as decrease in impairment of motor coordination at 24 rpm at 100 mg/kg, ip administered 1 hr before test by rotarod test; format: organism-based; design: dose 100 mg/kg, route intraperitoneal; settings: in vivo
Mus musculus [10] = experiment: Toxicity in albino Swiss CD-1 mouse assessed as decrease in impairment of motor coordination at 24 rpm at 30 mg/kg, ip administered 1 hr before test by rotarod test; format: organism-based; design: dose 30 mg/kg, route intraperitoneal; scale not given: the % may be the effect or the level left; settings: in vivo
[11] = biological target: Cholinesterase (Equus caballus) (UniProt P81908); experiment: Inhibition of horse serum BChE using butyrylthiocholine iodide as substrate preincubated at 0.5 to 1 uM for 5 mins by Lineweaver-Burk plot method
[12] = biological target: Acetylcholinesterase (Electrophorus electricus) (UniProt O42275); settings: 5 to 10 uM
[13] = PAMPA, 2 h

Chain of Cholinesterase (P81908 whole entry): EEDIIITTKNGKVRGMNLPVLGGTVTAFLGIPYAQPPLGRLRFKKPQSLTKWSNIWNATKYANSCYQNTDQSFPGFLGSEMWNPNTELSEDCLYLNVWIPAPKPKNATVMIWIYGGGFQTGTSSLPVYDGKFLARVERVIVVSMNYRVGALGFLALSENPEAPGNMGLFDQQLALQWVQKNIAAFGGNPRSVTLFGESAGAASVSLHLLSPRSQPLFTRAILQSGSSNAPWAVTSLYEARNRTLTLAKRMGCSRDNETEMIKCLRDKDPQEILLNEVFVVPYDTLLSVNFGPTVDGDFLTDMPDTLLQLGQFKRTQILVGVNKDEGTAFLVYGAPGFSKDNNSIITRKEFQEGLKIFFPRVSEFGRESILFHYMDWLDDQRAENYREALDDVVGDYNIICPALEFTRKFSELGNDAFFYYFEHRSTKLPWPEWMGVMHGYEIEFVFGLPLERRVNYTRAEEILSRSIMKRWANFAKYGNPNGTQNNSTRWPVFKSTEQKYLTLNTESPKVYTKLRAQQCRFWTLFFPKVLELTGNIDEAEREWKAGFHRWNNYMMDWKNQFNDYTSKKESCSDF
Chain of Acetylcholinesterase (O42275 whole entry): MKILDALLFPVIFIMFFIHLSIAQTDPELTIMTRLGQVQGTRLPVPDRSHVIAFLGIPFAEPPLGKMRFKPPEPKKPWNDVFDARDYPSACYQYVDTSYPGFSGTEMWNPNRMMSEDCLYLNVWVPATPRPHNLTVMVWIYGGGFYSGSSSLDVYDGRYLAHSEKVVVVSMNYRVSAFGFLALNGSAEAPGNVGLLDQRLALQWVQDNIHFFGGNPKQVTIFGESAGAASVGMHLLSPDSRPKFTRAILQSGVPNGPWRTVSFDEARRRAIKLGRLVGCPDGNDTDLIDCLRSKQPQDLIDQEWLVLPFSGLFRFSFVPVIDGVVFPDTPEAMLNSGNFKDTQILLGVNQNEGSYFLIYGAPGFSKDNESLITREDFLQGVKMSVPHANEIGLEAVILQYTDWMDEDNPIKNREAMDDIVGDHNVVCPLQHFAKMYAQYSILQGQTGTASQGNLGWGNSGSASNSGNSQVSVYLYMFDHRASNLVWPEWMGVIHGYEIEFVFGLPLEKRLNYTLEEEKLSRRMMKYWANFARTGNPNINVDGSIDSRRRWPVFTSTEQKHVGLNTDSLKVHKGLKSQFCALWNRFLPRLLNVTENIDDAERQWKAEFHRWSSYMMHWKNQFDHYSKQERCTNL
Chain of Acetylcholinesterase (Electrophorus electricus) (O42275 24-633 limits assumed): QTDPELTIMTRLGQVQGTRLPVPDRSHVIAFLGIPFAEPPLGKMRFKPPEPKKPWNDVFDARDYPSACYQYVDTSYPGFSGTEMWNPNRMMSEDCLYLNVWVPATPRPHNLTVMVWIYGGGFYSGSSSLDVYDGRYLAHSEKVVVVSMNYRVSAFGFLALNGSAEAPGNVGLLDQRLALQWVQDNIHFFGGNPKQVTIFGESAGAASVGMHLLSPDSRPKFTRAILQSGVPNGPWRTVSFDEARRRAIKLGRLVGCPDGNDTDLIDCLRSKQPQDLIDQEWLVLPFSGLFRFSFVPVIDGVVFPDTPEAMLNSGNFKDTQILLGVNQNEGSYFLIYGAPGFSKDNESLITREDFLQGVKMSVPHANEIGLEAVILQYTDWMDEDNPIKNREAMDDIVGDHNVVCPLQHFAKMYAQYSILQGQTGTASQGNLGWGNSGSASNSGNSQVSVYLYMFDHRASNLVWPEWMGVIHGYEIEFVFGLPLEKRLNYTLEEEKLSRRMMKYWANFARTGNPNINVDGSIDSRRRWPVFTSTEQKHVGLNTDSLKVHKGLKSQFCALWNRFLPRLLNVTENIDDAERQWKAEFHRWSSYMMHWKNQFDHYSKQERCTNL
Chain of Cholinesterase (Equus caballus) (P81908 whole entry): as the sequence (P81908 whole entry) above
Chain of Amyloid-beta precursor protein (Homo sapiens) (P05067 whole entry): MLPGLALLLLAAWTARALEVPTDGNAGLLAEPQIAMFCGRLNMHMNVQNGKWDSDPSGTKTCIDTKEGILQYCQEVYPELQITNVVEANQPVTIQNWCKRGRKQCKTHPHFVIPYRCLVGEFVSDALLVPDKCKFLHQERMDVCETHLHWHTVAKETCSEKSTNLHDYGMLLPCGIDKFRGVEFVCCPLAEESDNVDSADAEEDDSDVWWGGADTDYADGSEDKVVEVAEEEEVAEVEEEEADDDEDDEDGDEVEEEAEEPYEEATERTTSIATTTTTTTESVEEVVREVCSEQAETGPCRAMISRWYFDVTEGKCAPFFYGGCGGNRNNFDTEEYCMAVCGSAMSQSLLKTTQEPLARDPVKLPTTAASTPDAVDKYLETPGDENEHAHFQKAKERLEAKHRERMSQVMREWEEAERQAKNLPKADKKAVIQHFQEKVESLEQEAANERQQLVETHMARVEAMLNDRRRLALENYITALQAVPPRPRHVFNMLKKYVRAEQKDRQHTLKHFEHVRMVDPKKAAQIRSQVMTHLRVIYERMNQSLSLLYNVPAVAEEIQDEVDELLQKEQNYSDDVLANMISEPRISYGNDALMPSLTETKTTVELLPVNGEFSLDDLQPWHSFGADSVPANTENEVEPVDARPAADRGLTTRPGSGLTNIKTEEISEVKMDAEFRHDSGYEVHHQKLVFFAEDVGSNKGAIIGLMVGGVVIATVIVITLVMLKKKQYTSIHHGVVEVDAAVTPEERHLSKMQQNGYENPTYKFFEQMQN

Compound: O=C1c2ccccc2C(=O)N1CCCCCNC1CCN(Cc2ccccc2)CC1
- inhibition [1]: < 60%
- IC50 (Acetylcholinesterase): 69 µM

Compound: Fc1ccccc1CN1CCC(NCCCCCCn2ccc3ccccc32)CC1
- IC50 (Acetylcholinesterase): 42 µM
- IC50 (Cholinesterase): 3.41 µM

Compound: O=C1c2ccccc2C(=O)N1CCCCCCCCNC1CCN(Cc2cccc(Cl)c2)CC1
- inhibition [2]: < 60%
- Activity (Mus musculus [3]): Active
- inhibition [4]: Dose-dependent effect
- Activity (Mus musculus [5]): Active
- Activity (Mus musculus [6]): Toxic
- Activity (Mus musculus [7]): Non-toxic
- Activity (Mus musculus [8]): Non-toxic
- Activity (Mus musculus [9]): Toxic
- Activity (Mus musculus [10]): 38%
- IC50 (Cholinesterase): 0.72 µM

Compound: COc1ccc(CN2CCC(NCCCCCCCCN3C(=O)c4ccccc4C3=O)CC2)cc1
- IC50 (Acetylcholinesterase): 43.3 µM
- IC50 (Cholinesterase): 5.65 µM

Compound: O=C1c2ccccc2C(=O)N1CCCCCCNC1CCN(Cc2ccccc2F)CC1
- IC50 (Acetylcholinesterase): 85.3 µM
- IC50 (Cholinesterase): 4 µM

Compound: O=C1c2ccccc2C(=O)N1CCCNC1CCN(Cc2ccc(O)cc2)CC1
- inhibition [11]: Active
- IC50 (Acetylcholinesterase): 4.52 µM
- IC50 (Cholinesterase): 9.37 µM
- inhibition [12]: Active

Compound: O=C1c2ccccc2C(=O)N1CCCNC1CCN(Cc2cccc(Cl)c2)CC1
- IC50 (Acetylcholinesterase): 68.3 µM
- IC50 (Cholinesterase): 4.53 µM

Compound: O=C1c2ccccc2C(=O)N1CCCCCCCCNC1CCN(Cc2ccccc2)CC1
- IC50 (Acetylcholinesterase): 17.7 µM
- IC50 (Cholinesterase): 1.98 µM

Compound: O=C1c2ccccc2C(=O)N1CCCCCCNC1CCN(Cc2cccc(Cl)c2)CC1
- IC50 (Acetylcholinesterase): 54.4 µM
- IC50 (Cholinesterase): 2.73 µM

Compound: COc1ccc(CN2CCC(NCCCN3C(=O)c4ccccc4C3=O)CC2)cc1
- inhibition [2]: < 60%
- IC50 (Cholinesterase): 26.8 µM

Compound: c1ccc(CN2CCC(NCCCCCn3ccc4ccccc43)CC2)cc1
- IC50 (Acetylcholinesterase): 0.02 µM
- IC50 (Cholinesterase): 1.83 µM

Compound: c1ccc(CN2CCC(NCCCCCCn3ccc4ccccc43)CC2)cc1
- IC50 (Acetylcholinesterase): 0.01 µM
- IC50 (Cholinesterase): 15.3 µM

Compound: COc1ccc(CN2CCC(NCCCCCCCCn3ccc4ccccc43)CC2)cc1
- inhibition [2]: < 60%
- IC50 (Cholinesterase): 0.34 µM

Compound: Oc1ccc(CN2CCC(NCCCCCCn3ccc4ccccc43)CC2)cc1
- inhibition [2]: < 60%
- IC50 (Cholinesterase): 1.78 µM

Compound: CC(=O)[C@H]1CC[C@H]2[C@@H]3CCC4=CC(=O)CC[C@]4(C)[C@H]3CC[C@]12C [PROGESTERONE]
- log Pe [13]: -5.1

Compound: O=C1c2ccccc2C(=O)N1CCCCCCCCNC1CCN(Cc2ccc(O)cc2)CC1
- IC50 (Acetylcholinesterase): 23.5 µM
- IC50 (Cholinesterase): 0.81 µM

Compound: O=C1c2ccccc2C(=O)N1CCCCCCNC1CCN(Cc2ccc(O)cc2)CC1
- IC50 (Acetylcholinesterase): 29.8 µM
- IC50 (Cholinesterase): 2.32 µM

Compound: Fc1ccccc1CN1CCC(NCCCCCCCCn2ccc3ccccc32)CC1
- IC50 (Acetylcholinesterase): 29.6 µM
- IC50 (Cholinesterase): 0.93 µM

Compound: c1ccc(CN2CCC(NCCCn3ccc4ccccc43)CC2)cc1
- inhibition [2]: < 60%
- IC50 (Cholinesterase): 0.002 µM

Compound: COc1ccc(CN2CCC(NCCCCCCn3ccc4ccccc43)CC2)cc1
- inhibition [2]: < 60%
- IC50 (Cholinesterase): 0.52 µM

Compound: O=C1c2ccccc2C(=O)N1CCCNC1CCN(Cc2ccccc2F)CC1
- IC50 (Acetylcholinesterase): 23.1 µM
- IC50 (Cholinesterase): 10.5 µM

Compound: Clc1cccc(CN2CCC(NCCCCCCCCn3ccc4ccccc43)CC2)c1
- IC50 (Acetylcholinesterase): 21.7 µM
- IC50 (Cholinesterase): 0.75 µM

Compound: O=C1c2ccccc2C(=O)N1CCCNC1CCN(Cc2ccccc2)CC1
- IC50 (Acetylcholinesterase): 8.11 µM
- IC50 (Cholinesterase): 51.8 µM

Compound: c1ccc(CN2CCC(NCCCCCCCCn3ccc4ccccc43)CC2)cc1
- IC50 (Acetylcholinesterase): 70.1 µM
- IC50 (Cholinesterase): 1.08 µM

Compound: CC(C)NCC(O)COc1cccc2ccccc12 (stereo not drawn) [PROPRANOLOL]
- log Pe [13]: -3.5

Compound: COc1ccc(CN2CCC(NCCCCCCN3C(=O)c4ccccc4C3=O)CC2)cc1
- inhibition [2]: < 60%
- IC50 (Cholinesterase): 7.39 µM

Compound: O=C1c2ccccc2C(=O)N1CCCCCCCCNC1CCN(Cc2ccccc2F)CC1
- IC50 (Acetylcholinesterase): 43.4 µM
- IC50 (Cholinesterase): 1.87 µM

Compound: Clc1cccc(CN2CCC(NCCCCCCn3ccc4ccccc43)CC2)c1
- IC50 (Acetylcholinesterase): 53.2 µM
- IC50 (Cholinesterase): 0.83 µM

Compound: Oc1ccc(CN2CCC(NCCCCCCCCn3ccc4ccccc43)CC2)cc1
- inhibition [2]: < 60%
- IC50 (Cholinesterase): 1.33 µM

Compound: O=C1c2ccccc2C(=O)N1CCCCCCNC1CCN(Cc2ccccc2)CC1
- IC50 (Acetylcholinesterase): 45.4 µM
- IC50 (Cholinesterase): 12.8 µM
